biological target: T1, human GPR40 (Homo sapiens, UniProt O14842); assay: cAMP production in human GPR40-expressed CHO cells; assay type: cell-based; details: 2 μM forskolin, 10 minutes
T1 construct: The resulting fragment (ca. 1 kb) was introduced into vector pAKKO-111, which was used for transfection of CHO cells; expressed in transfected cells
Experimental: (§1) Human and mouse GPR40-expressed CHO cells were incubated for 20 hours in a 96-well Plate at a density of 1×10^5/well. After the cells were washed twice with 100 μl of Assay Buffer (DMEM (Invitrogen) containing 0.1 mM IBMX (Wako Pure Chemical) and 0.1 mM Ro-20-1724 (Biomol)), DHA, solutions of linoleic acid and […] (both by SIGMA) in Assay Buffer in the presence or absence of 2 μM forskolin (Wako Pure Chemical) were added to the cells, followed by reacting at 37° C. for 10 minutes. After the reaction, the cells were lysed in accordance with the formulation of cAMP Screen (ABI) and the cAMP level in the cells was assayed.

T1 sequence (O14842 whole entry, the tested form may be a part): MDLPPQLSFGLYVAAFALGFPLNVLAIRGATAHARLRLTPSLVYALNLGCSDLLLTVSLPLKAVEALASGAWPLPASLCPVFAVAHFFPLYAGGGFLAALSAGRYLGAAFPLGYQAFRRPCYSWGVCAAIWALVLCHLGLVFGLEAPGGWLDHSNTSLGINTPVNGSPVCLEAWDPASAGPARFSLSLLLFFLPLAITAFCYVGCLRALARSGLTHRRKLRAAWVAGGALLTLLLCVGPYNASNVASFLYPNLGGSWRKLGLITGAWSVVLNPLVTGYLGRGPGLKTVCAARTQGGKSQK

Row | cAMP production activity, presence of forskolin | Compound
1 | weakly shown | CCCCC/C=C\C/C=C\CCCCCCCC(=O)O [Linoleic acid (C18:2), Linoleic acid]
2 | weakly shown | CCCCC/C=C\C/C=C\C/C=C\CCCCC(=O)O [γ-Linolenic acid (C18:3), γ-Linolenic acid]

Row | Compound | cAMP production activity, presence of forskolin
3 | CC/C=C\C/C=C\C/C=C\C/C=C\C/C=C\C/C=C\CCC(=O)O [Docosahexaenoic acid (C22:6), 4Z,7Z,10Z,13Z,16Z,19Z-docosahexaenoic acid] | weakly shown

same assay, conditions: 10 minutes

Row | Compound | cAMP production activity, absence of forskolin
4 | CC/C=C\C/C=C\C/C=C\C/C=C\C/C=C\C/C=C\CCC(=O)O [Docosahexaenoic acid (C22:6), 4Z,7Z,10Z,13Z,16Z,19Z-docosahexaenoic acid] | did not show any cAMP production activity
5 | CCCCC/C=C\C/C=C\CCCCCCCC(=O)O [Linoleic acid (C18:2), Linoleic acid] | did not show any cAMP production activity
6 | CCCCC/C=C\C/C=C\C/C=C\CCCCC(=O)O [γ-Linolenic acid (C18:3), γ-Linolenic acid] | did not show any cAMP production activity

biological target: T2, Rat GPR40 (Rattus norvegicus, UniProt Q8K3T4); assay: EC50 by FLIPR calcium assay in CHO cells stably expressing rat GPR40; assay type: cell-based; details: intracellular calcium, FLIPR, stable CHO line; read-out: EC50 Rat GPR40
T2 construct: expressed in transfected cells
Experimental: (§2) For determination of EC50 values, the CHO cell lines in which human-, mouse- and rat-derived GPR40 was stably expressed were used. Unless otherwise indicated, these CHO cell lines were incubated in α-MEM medium (Invitrogen) supplemented with 10% fetal calf serum (Invitrogen).
(§3) On the day before assay, the cells incubated to almost confluent stage were rinsed with PBS (Invitrogen), then scraped in 0.05% trypsin-EDTA solution (Invitrogen) and recovered by centrifugal operation. The number of the cells obtained was counted and diluted so as to contain 3×10^5 cells/1 mL of the medium. The dilution was dispensed in a Black welled 96-well plate (Coster) in 100 μL/well, followed by incubation overnight in a CO2 incubator. To the thus prepared CHO cells, various test samples were added and the changes in intracellular calcium level in this case were measured using FLIPR (Molecular Device). In order to determine the changes in the intracellular calcium ion level on FLIPR, the cells were pre-treated by the following procedures.
(§4) First, for the purpose of adding a fluorescent dye Fluo-3 AM (DOJIN) to the cells or washing the cells immediately before the FLIPR assay, an assay buffer was prepared. A solution obtained by adding 20 mL of 1M HEPES (pH 7.4) (DOJIN) to 1000 mL of HBSS (Invitrogen) was prepared (hereinafter HBSS/HEPES solution), to which 10 mL of a solution mixture obtained by dissolving 710 mg of Probenecid (Sigma) in 5 mL of 1N NaOH and further adding 5 mL of HBSS/HEPES solution was added. The resulting solution was used as the assay buffer. Next, 50 μg of Fluo-3AM was dissolved in 21 μL of DMSO (Wako) and an equal volume of 20% Pulronic acid (Molecular Probes) was added to and mixed with the solution. The mixture was then added to 10.6 mL of the assay buffer supplemented with 105 μL of fetal calf serum to prepare a fluorescent dye solution. […], the medium for the CHO cells again plated in a Black welled 96-well plate was removed. Immediately thereafter, the fluorescent dye solution was dispensed in 100 μL each/well and the cells were incubated in a CO2 incubator for an hour so that the fluorescent dye was taken up into the cells. The cells after the incubation was washed with the assay buffer described above and set on FLIPR. […] After the pre-treatment above was made, the changes in intracellular calcium level after the addition of various test samples were measured on FLIPR.

T2 sequence (Q8K3T4 whole entry): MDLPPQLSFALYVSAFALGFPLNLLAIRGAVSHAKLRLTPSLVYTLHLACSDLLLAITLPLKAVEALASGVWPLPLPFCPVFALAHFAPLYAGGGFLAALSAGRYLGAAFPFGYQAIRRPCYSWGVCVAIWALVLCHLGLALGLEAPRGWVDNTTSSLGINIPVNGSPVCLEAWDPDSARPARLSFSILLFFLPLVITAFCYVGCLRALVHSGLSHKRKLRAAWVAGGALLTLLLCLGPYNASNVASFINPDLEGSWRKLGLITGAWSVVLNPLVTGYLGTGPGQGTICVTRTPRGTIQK

Row | Compound | EC50 [µM]
7 | CCCCC/C=C\C/C=C\C/C=C\C/C=C\CCCC(=O)O [Arachidonic acid (C20:4), Arachidonic acid] | 8 ± 0.6
8 | CC/C=C\C/C=C\C/C=C\C/C=C\C/C=C\C/C=C\CCC(=O)O [Docosahexaenoic acid (C22:6), 4Z,7Z,10Z,13Z,16Z,19Z-docosahexaenoic acid] | 13 ± 1.7
9 | CCCCCCCC/C=C\CCCCCCCC(=O)O [Oleic acid (C18:1), Oleic acid] | 3.4 ± 0.4

Now from value to molecule:

Row | EC50 [µM] | Compound
10 | 4.1 ± 0.5 | CCCCC/C=C\C/C=C\CCCCCCCC(=O)O [Linoleic acid (C18:2), Linoleic acid]
11 | 5.4 ± 1.1 | CCCCC/C=C\C/C=C\C/C=C\CCCCC(=O)O [γ-Linolenic acid (C18:3), γ-Linolenic acid]

test system: mouse insulinoma MIN6 cells; assay: Insulin secretion from MIN6 cells with free fatty acid-BSA mixture (RIA); assay type: cell-based; details: 300 μM to 1000 μM; fatty acid-BSA 4:1; 11 mM glucose; 90 (or 60) minutes
Experimental: The MIN6 cells were cultured in DMEM (high glucose, Invitrogen) containing 15% FCS (Trace Scientific Ltd.), 55 μM 2-mercaptoethanol, 100 U/ml penicillin and 100 μg/ml streptomycin, unless otherwise indicated. MIN6 cells were plated in a 96-well plate in 10^5 cells/well, followed by incubation at 37° C. for 3 days in a CO2 incubator adjusted to a concentration of 5% CO2. The medium was replaced by RPMI1640 (glucose free, Invitrogen) containing 10% FCS (Trace Scientific Ltd.), 5.5 mM glucose, 100 U/ml penicillin and 100 μg/ml streptomycin, followed by incubation for further 24 hours. After the medium was removed by suction, a solution mixture of free fatty acid-bovine serum albumin (BSA) (in a molar ratio of 4:1) diluted with RPMI1640 (glucose free, Invitrogen) containing 10% FCS (Trace Scientific Ltd.), 11 mM glucose, 100 U/ml penicillin and 100 μg/ml streptomycin was added to the cells, followed by reacting in a CO2 incubator adjusted to a 5% CO2 concentration at 37° C. for 90 minutes (or 60 minutes). After the reaction, the 96-well plate was centrifuged at 1500 rpm for 5 minutes and the culture supernatant was then recovered. The amount of insulin secreted into the culture supernatant was determined by radioimmunoassay (RIA) using the rat insulin RIA system (Amersham Pharmacia).

Row | Compound | insulin secretion by MIN6 cells
12 | CCCCCCCC/C=C\CCCCCCCC(=O)O [Oleic acid (C18:1), Oleic acid] | promoted
13 | CCCCC/C=C\C/C=C\C/C=C\CCCCC(=O)O [γ-Linolenic acid (C18:3), γ-Linolenic acid] | promoted

biological target: T1, human GPR40; assay: EC50 by FLIPR calcium assay in CHO cells stably expressing human GPR40; assay type: cell-based; details: intracellular calcium, FLIPR, stable CHO line; read-out: EC50 Human GPR40
Experimental: as §2, §3, §4

Row | Compound | EC50 [µM]
14 | CCCCC/C=C\C/C=C\C/C=C\C/C=C\CCCC(=O)O [Arachidonic acid (C20:4), Arachidonic acid] | 2.4 ± 0.6
15 | CC/C=C\C/C=C\C/C=C\C/C=C\C/C=C\C/C=C\CCC(=O)O [Docosahexaenoic acid (C22:6), 4Z,7Z,10Z,13Z,16Z,19Z-docosahexaenoic acid] | 1.1 ± 0.3
16 | CCCCCCCC/C=C\CCCCCCCC(=O)O [Oleic acid (C18:1), Oleic acid] | 2 ± 0.3

The remaining lines, values ahead:

Row | EC50 [µM] | Compound
17 | 1.8 ± 0.1 | CCCCC/C=C\C/C=C\CCCCCCCC(=O)O [Linoleic acid (C18:2), Linoleic acid]
18 | 4.6 ± 1.6 | CCCCC/C=C\C/C=C\C/C=C\CCCCC(=O)O [γ-Linolenic acid (C18:3), γ-Linolenic acid]

biological target: T3, Mouse GPR40 (Mus musculus, UniProt Q76JU9); assay: EC50 by FLIPR calcium assay in CHO cells stably expressing mouse GPR40; assay type: cell-based; details: intracellular calcium, FLIPR, stable CHO line; read-out: EC50 Mouse GPR40
T3 construct: expressed in transfected cells
Experimental: as §2, §3, §4

T3 sequence (Q76JU9 whole entry): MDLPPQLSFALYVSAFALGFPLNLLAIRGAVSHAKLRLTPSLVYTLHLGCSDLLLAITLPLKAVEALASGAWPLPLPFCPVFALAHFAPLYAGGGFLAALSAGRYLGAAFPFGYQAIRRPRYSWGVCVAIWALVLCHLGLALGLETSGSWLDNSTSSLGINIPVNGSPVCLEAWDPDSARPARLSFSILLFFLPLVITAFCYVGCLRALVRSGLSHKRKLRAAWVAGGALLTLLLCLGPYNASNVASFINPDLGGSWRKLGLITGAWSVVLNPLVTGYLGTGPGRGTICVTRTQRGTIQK

Row | Compound | EC50 [µM]
19 | CCCCC/C=C\C/C=C\C/C=C\C/C=C\CCCC(=O)O [Arachidonic acid (C20:4), Arachidonic acid] | 5.4 ± 0.8
20 | CC/C=C\C/C=C\C/C=C\C/C=C\C/C=C\C/C=C\CCC(=O)O [Docosahexaenoic acid (C22:6), 4Z,7Z,10Z,13Z,16Z,19Z-docosahexaenoic acid] | 16 ± 4.7
21 | CCCCCCCC/C=C\CCCCCCCC(=O)O [Oleic acid (C18:1), Oleic acid] | 2.7 ± 0.5

Further lines, results first:

Row | EC50 [µM] | Compound
22 | 2.9 ± 0.3 | CCCCC/C=C\C/C=C\CCCCCCCC(=O)O [Linoleic acid (C18:2), Linoleic acid]
23 | 5.2 ± 0.6 | CCCCC/C=C\C/C=C\C/C=C\CCCCC(=O)O [γ-Linolenic acid (C18:3), γ-Linolenic acid]

biological target: T3, Mouse GPR40; assay: cAMP production in mouse GPR40-expressed CHO cells; assay type: cell-based; details: 2 μM forskolin, 10 minutes
Experimental: as §1

Row | cAMP production activity, presence of forskolin | Compound
24 | no activity was shown | CCCCC/C=C\C/C=C\CCCCCCCC(=O)O [Linoleic acid (C18:2), Linoleic acid]
25 | no activity was shown | CCCCC/C=C\C/C=C\C/C=C\CCCCC(=O)O [γ-Linolenic acid (C18:3), γ-Linolenic acid]

Row | Compound | cAMP production activity, presence of forskolin
26 | CC/C=C\C/C=C\C/C=C\C/C=C\C/C=C\C/C=C\CCC(=O)O [Docosahexaenoic acid (C22:6), 4Z,7Z,10Z,13Z,16Z,19Z-docosahexaenoic acid] | no activity was shown

same assay, conditions: 10 minutes

Row | Compound | cAMP production activity, absence of forskolin
27 | CC/C=C\C/C=C\C/C=C\C/C=C\C/C=C\C/C=C\CCC(=O)O [Docosahexaenoic acid (C22:6), 4Z,7Z,10Z,13Z,16Z,19Z-docosahexaenoic acid] | did not show any cAMP production activity
28 | CCCCC/C=C\C/C=C\CCCCCCCC(=O)O [Linoleic acid (C18:2), Linoleic acid] | did not show any cAMP production activity
29 | CCCCC/C=C\C/C=C\C/C=C\CCCCC(=O)O [γ-Linolenic acid (C18:3), γ-Linolenic acid] | did not show any cAMP production activity

test system: MIN6 cells; assay: FLIPR intracellular calcium assay using MIN6; assay type: cell-based, mouse; details: 10 μM fatty acid
Experimental: Mouse pancreatic β cell line MIN6 incubated in a flask was scraped using PBS containing 2.5 mM EDTA and diluted so as to contain 3×10^5 cells/1 mL of the medium. The dilution was dispensed in a Black welled 96-well plate (Coster) in 100 μL/well, followed by incubation in a CO2 incubator for 2 days. The medium used was 4.5 g/l of glucose-containing Dulbecco's Modified Eagle Medium (DMEM, Invitrogen, Inc.) supplemented with 15% fetal calf serum (ThermoTrace, Inc.), 5.5 μM 2-mercaptethanol (Invitrogen, Inc.), 20 mM HEPES pH 7.3, 100 U/ml penicillin and 100 μg/ml streptomycin. To the thus prepared MIN6 cells, various fatty acids (10 μM) were added and the changes in intracellular calcium level in this case were measured using FLIPR (Molecular Device). The changes in the intracellular calcium ion level on FLIPR were assayed in accordance with the procedures described in EXAMPLE 24.

Row | Compound | intracellular Ca^2+ level in MIN6
30 | CCCCC/C=C\C/C=C\C/C=C\C/C=C\CCCC(=O)O [Arachidonic acid (C20:4), Arachidonic acid] | increased
31 | CC/C=C\C/C=C\C/C=C\C/C=C\C/C=C\C/C=C\CCC(=O)O [Docosahexaenoic acid (C22:6), 4Z,7Z,10Z,13Z,16Z,19Z-docosahexaenoic acid] | increased
32 | CCCCC/C=C\C/C=C\CCCCCCCC(=O)O [Linoleic acid (C18:2), Linoleic acid] | increased
33 | CCCCCCCC/C=C\CCCCCCCC(=O)O [Oleic acid (C18:1), Oleic acid] | increased
34 | CCCCC/C=C\C/C=C\C/C=C\CCCCC(=O)O [γ-Linolenic acid (C18:3), γ-Linolenic acid] | increased

— patent publication US7214495B2, “Screening method” (Takeda Pharmaceutical Company Limited, priority 2002, dated 2007)
